Results published in US20140155420A1, “INHIBITORS OF EYA2” (The Regents of the University of Colorado, a body corporate, priority 2011, published 2014).
Entries after “also recorded” stand apart in the source; their conditions may differ.

Experiments:
[1] = system: Six1/Eya2-mediated transcription; experiment: MEF3-promoter luciferase assay in MCF7 cells; assay type: cell-based; conditions: compound incubated 48 hours
Protocol: MCF7 cells were plated in 24-well plates at 25,000 cells/well. 24 hours later, cells were transfected with 300 ng/well pGL3-6xMEF3 (a promoter-luciferase construct in which the promoter contains 6 well characterized Six1 MEF3 binding sites (Spitz et al., 1998)), 70 ng/well renilla luciferase, 100 ng/well pcDNA3.1 Six1, and 200 ng/well of pcDNA3.1-FLAG-Eya2 using FuGENE 6 (Roche Applied Science) transfection reagent. The following day the media was changed and 24 hours later lysates were prepared and analyzed with the Dual Luciferase Kit (Promega) on a Modulus Microplate (Turner Biosystems). An Eya2 phosphatase-dead mutant (D274N) was also used in place of wild type Eya2 to evaluate the effect of Eya2's phosphatase activity on transcription. To assay the effect of Eya2 phosphatase inhibitors on transcriptional activity, compound was added 24 hours after transfection and incubated for 48 hours before lysates were prepared and analyzed for luciferase activity as described above. All results were normalized to renilla activity to account for transfection efficiency and transcriptional activity was normalized to Eya2 protein expression in the Eya2 D274N rescue experiment. The inhibitory effect of the compounds was normalized to vehicle-treated control and statistical significance was determined by performing a one-way ANOVA with Dunnett's post-test on the natural log transformed normalized transcriptional activity.

[2] = UV-Vis spectra with Mg2+ titration; assay type: physicochemical; conditions: acetonitrile; for λmax without Mg2+ / λmax with Mg2+: 25 μM compound; for λmax without Mg2+: 0 mM Mg2+
Protocol: Compounds were dissolved in acetonitrile at a final concentration of 25 μM with final Mg^2+ concentration at 0, 0.5, 1, 5, 10, 25, 50, 100 and 200 mM. UV-visible spectra were obtained using an Agilent 8453 UV-Visible Spectrophotometer (Agilent Technologies) in 0.1 cm quartz cuvette at room temperature.
In order to elicit any possible weak association to Mg^2+, the inventors moved on to the organic solvent acetonitrile (Hojo et al., 2002). […] The solutions were prepared such that the absorbance was within the 0-1 range.

Eya2 ED = biological target: T1, Eya2 ED (Homo sapiens, UniProt O00167); conditions: no extra Mg2+ added
T1 sequence (O00167 253-538): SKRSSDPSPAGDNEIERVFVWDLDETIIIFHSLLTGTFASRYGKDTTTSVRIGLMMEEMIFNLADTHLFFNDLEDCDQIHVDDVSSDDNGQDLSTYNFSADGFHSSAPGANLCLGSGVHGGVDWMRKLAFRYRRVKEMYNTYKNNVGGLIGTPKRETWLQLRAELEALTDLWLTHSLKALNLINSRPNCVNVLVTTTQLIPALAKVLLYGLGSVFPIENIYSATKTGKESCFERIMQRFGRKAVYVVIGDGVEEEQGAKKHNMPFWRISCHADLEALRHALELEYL
Protocol: In order to provide evidence for the binding between hydrazides with Eya2, thermal shift experiments were performed to evaluate if Eya2 melting temperature (Tm) could be positively shifted in the presence of different concentrations of hydrazides. Compounds were serially diluted in DMSO in 96-well polypropylene plates (Thermo Fisher Scientific). A mixture of 49 μl of Eya2 and SYPRO Orange (5000× stock solution, Invitrogen) were transferred to a 96-well skirted thin-wall PCR plate (Bio-Rad) with a final concentration of 1 μM and 5×, respectively. Compounds prepared in the aforementioned mother plate were subsequently added to the protein-dye mixture, with final concentrations ranging from 0.34 nM to 200 μM (final volume 50 μl). DMSO alone was also transferred within each compound dilution series as a control sample. DMSO concentration was consistent across each dilution series and was maintained at 2%. The plate was sealed with Optical-Quality Sealing Tape (Bio-Rad) and was centrifuged at 1000 rpm for 20 s before heating commenced. Plate heating was performed on an iQ5 real-time PCR detection system (Bio-Rad) from 20 to 95° C. with an increment of 1° C. and a ramping rate of 0.1° C./s. A CCD camera was used to measure SYPRO Orange fluorescence through a filter set corresponding to excitation and emission wavelengths of 490 and 575 nm, respectively. […]

[3] = UV-Vis spectra with Na+ titration; assay type: physicochemical; conditions: acetonitrile
Protocol: In order to elicit any possible weak association to Mg^2+, the inventors moved on to the organic solvent acetonitrile (Hojo et al., 2002). […] The solutions were prepared such that the absorbance was within the 0-1 range. They observed a dose-dependent shift in the maximum absorbance wavelength (λmax), from 322 nm (0 mM Mg^2+) to 334 nm (100 mM Mg^2+) (FIGS. 11B, 11C). The inventors conducted a similar study with Na where the compound concentration was kept at 12.5 μM and the sodium perchlorate concentration ranged from 0 to 25 mM.

In the case of `Cc1ccccc1C(=O)N/N=C/c1ccc(Sc2ccccn2)o1` [MLS000585814], the “Effect on Six1/Eya2-mediated transcription from the MEF3-luciferase reporter” value [1] is reported as “diminish; also recorded: inhibit”, the “λmax without Mg2+” value [2] is reported as 316 nm and the “λmax with Mg2+” value ([2]; 50 mM Mg2+) is reported as 327 nm.
With `O=C(O)CN(CCN(CC(=O)O)CC(=O)O)CC(=O)O` [EDTA] the “Effect on ED melting temperature (Tm)” value (Eya2 ED) was “reduces Tm”.
For `O=C(N/N=C/c1ccc(Sc2ccccn2)o1)c1ccncc1` [NCGC00241224], the “Effect on Six1/Eya2-mediated transcription from the MEF3-luciferase reporter” value [1] was “does not significantly affect; also recorded: does not significantly inhibit”.
For `O=C(N/N=C/c1ccc(Sc2ccccn2)o1)c1cccc(F)c1` [MLS000544460], the “Effect on Six1/Eya2-mediated transcription from the MEF3-luciferase reporter” value [1] was “inhibit”, the “Effect on Six1/Eya2-mediated transcription from the MEF3-luciferase reporter” value ([1]; listed as MLS00044460) was “diminish” and the “Intrinsic affinity for Mg2+” value [2] was “very weak intrinsic affinity”. The “λmax without Mg2+” value [2] was 322 nm, the “λmax with Mg2+” value ([2]; 100 mM Mg2+) was 334 nm and the “λmax when titrated with Na+” value [3] was 323 nm.
